{"source": "patent US10822319B2", "about": "“Crystal of DPP-IV long-acting inhibitor and salt” (priority 2016, dated 2020)", "key": {"[1]": {"assay": "Stability test of the crystal of the compound represented by Formula I", "format": "physicochemical", "from_the_text": "Samples were taken on day 5 or day 10 and tested, respectively, and the results were compared with the initial results."}, "[2]": {"assay": "Pharmacokinetics in Beagle dogs", "format": "in vivo", "conditions": "plasma, 2 mg/kg (in free form); for MRT last: read-out: MRT(0−t); for bioavailability: relative to the compound represented by Formula I, read-out: Relative F %", "procedure": "Male Beagle dogs were fasted for about 12 h prior to administration and had free access to water. The dogs were also fasted for 4 hours after administration. Blood samples (0.8 mL) were taken from the forelimb vein of the subject Beagle dogs at 0.25, 0.5, 1, 2, 4, 6, 8, 10, 24, 30, 48, and 72 h after administration. The samples were then placed in EDTA-K2 centrifuge tubes, stored at 4° C., and centrifuged for 10 min at a speed of 4000 rpm at 4° C. within 0.5 h after blood collection to separate plasma. The plasma was stored at […] within 1 h after collecting all the plasma.\n300 μL of a solution of an internal standard substance in methanol was added to 50 μL of the plasma sample to be tested and a standard curve sample, respectively. The resulting mixture was mixed uniformly by shaking for 5 min, and centrifuged for 10 min at a speed of 13000 rpm. Then 80 μL of supernatant was taken, and 5 μL of the supernatant was pipetted for LC/MS/MS determination, and the chromatogram was recorded."}, "[3]": {"conditions": "High Humidity (RH92.5%, 25° C.), Day 5"}, "[4]": {"conditions": "High Humidity (RH92.5%, 25° C.), Day 10"}, "[5]": {"conditions": "Light Irradiation (6000 lux), Day 5"}, "[6]": {"conditions": "Light Irradiation (6000 lux), Day 10"}, "[7]": {"conditions": "male, Beagle, dog, po, 2 mg/kg, crystalline form"}, "[8]": {"conditions": "male Beagle dogs, crystalline form"}, "[9]": {"conditions": "male, Beagle, dog, oral, 2 mg/kg, crystalline form"}}, "note": "Where two headings read alike, the source gives them in different places."}
{"molecule": "CS(=O)(=O)c1ccc2c(c1)CN([C@H]1CO[C@H](c3cc(F)ccc3F)[C@@H](N)C1)C2", "note": "[(2R,3S,5R)-5-(5-methanesulfonylisoindolin-2-yl)-2-(2,5-difluorophenyl)tetrahydro-2H-pyran-3-amine]", "values": [{"measurement": "Content (%)", "setting": "[1]; 40° C., Day 5", "value": 99.6, "unit": "%"}, {"measurement": "Total impurity (%)", "setting": "[1]; 40° C., Day 5", "value": 0.31, "unit": "%"}, {"measurement": "Content (%)", "setting": "[1]; 40° C., Day 10", "value": 99.6, "unit": "%"}, {"measurement": "Total impurity (%)", "setting": "[1]; 40° C., Day 10", "value": 0.37, "unit": "%"}, {"measurement": "Content (%)", "setting": "[1]; 60° C., Day 5", "value": 100.2, "unit": "%"}, {"measurement": "Total impurity (%)", "setting": "[1]; 60° C., Day 5", "value": 0.30, "unit": "%"}, {"measurement": "Content (%)", "setting": "[1]; 60° C., Day 10", "value": 99.4, "unit": "%"}, {"measurement": "Total impurity (%)", "setting": "[1]; 60° C., Day 10", "value": 0.33, "unit": "%"}, {"measurement": "Content (%)", "setting": "[1]; Day 0", "value": 99.1, "unit": "%"}, {"measurement": "Total impurity (%)", "setting": "[1]; Day 0", "value": 0.39, "unit": "%"}, {"measurement": "Content (%)", "setting": "[1]; [3]", "value": 100.3, "unit": "%"}, {"measurement": "Total impurity (%)", "setting": "[1]; [3]", "value": 0.27, "unit": "%"}, {"measurement": "Content (%)", "setting": "[1]; [4]", "value": 99.9, "unit": "%"}, {"measurement": "Total impurity (%)", "setting": "[1]; [4]", "value": 0.32, "unit": "%"}, {"measurement": "Content (%)", "setting": "[1]; [5]", "value": 99.5, "unit": "%"}, {"measurement": "Total impurity (%)", "setting": "[1]; [5]", "value": 0.33, "unit": "%"}, {"measurement": "Content (%)", "setting": "[1]; [6]", "value": 99.3, "unit": "%"}, {"measurement": "Total impurity (%)", "setting": "[1]; [6]", "value": 0.44, "unit": "%"}, {"measurement": "Appearance", "setting": "[1]; all conditions and days (Day 0, 40° C., 60° C., high humidity, light irradiation)", "value": "Off-white powdered solid"}]}
{"molecule": "CS(=O)(=O)c1ccc2c(c1)CN([C@H]1CO[C@H](c3cc(F)ccc3F)[C@@H](N)C1)C2", "note": "[The compound represented by Formula I, (2R,3S,5R)-5-(5-methanesulfonylisoindolin-2-yl)-2-(2,5-difluorophenyl)tetrahydro-2H-pyran-3-amine]", "values": [{"measurement": "AUC(0-inf)", "setting": "[2]; [7]", "value": 15800, "unit": "ng·h/mL"}, {"measurement": "AUC(0-t)", "setting": "[2]; [7]", "value": 15200, "unit": "ng·h/mL"}, {"measurement": "half-life", "setting": "[2]; [7]", "value": 984, "unit": "min"}, {"measurement": "Cmax", "setting": "[2]; male, Beagle, dog, po, 2 mg/kg, crystalline form, read-out: Cmax", "value": 926, "unit": "ng/mL"}, {"measurement": "MRT last", "setting": "[2]; [7]", "value": 20.6, "unit": "h"}, {"measurement": "Tmax", "setting": "[2]; male, Beagle, dog, po, 2 mg/kg, crystalline form, read-out: Tmax", "value": 360, "unit": "min"}, {"measurement": "bioavailability", "setting": "[2]; male, Beagle, dog, po, 2 mg/kg", "value": 100, "unit": "%"}]}
{"molecule": "CS(=O)(=O)c1ccc2c(c1)CN([C@H]1CO[C@H](c3cc(F)ccc3F)[C@@H](N)C1)C2", "note": "[The phosphate of the compound represented by Formula I] [Phosphate of (2R,3S,5R)-5-(5-methanesulfonylisoindolin-2-yl)-2-(2,5-difluorophenyl)tetrahydro-2H-pyran-3-amine]", "values": [{"measurement": "AUC(0−t)", "setting": "[2]; [8]", "value": 22746, "unit": "ng·h/mL"}, {"measurement": "AUC(0−∞)", "setting": "[2]; [8]", "value": 23508, "unit": "ng·h/mL"}, {"measurement": "Cmax", "setting": "[2]; [8]", "value": 1746, "unit": "ng/mL"}, {"measurement": "MRT(0−t)", "setting": "[2]; [8]", "value": 17.9, "unit": "h"}, {"measurement": "Tmax", "setting": "[2]; [8]", "value": 40.2, "unit": "min"}, {"measurement": "t1/2", "setting": "[2]; [8]", "value": 16.9, "unit": "h"}]}
{"molecule": "CS(=O)(=O)c1ccc2c(c1)CN([C@H]1CO[C@H](c3cc(F)ccc3F)[C@@H](N)C1)C2", "note": "[fumarate of (2R,3S,5R)-5-(5-methanesulfonylisoindolin-2-yl)-2-(2,5-difluorophenyl)tetrahydro-2H-pyran-3-amine]", "values": [{"measurement": "AUC(0-inf)", "setting": "[2]; [9]", "value": 20300, "unit": "ng·h/mL"}, {"measurement": "AUC(0-t)", "setting": "[2]; [9]", "value": 19500, "unit": "ng·h/mL"}, {"measurement": "half-life", "setting": "[2]; [9]", "value": 996, "unit": "min"}, {"measurement": "Cmax", "setting": "[2]; male, Beagle, dog, oral, 2 mg/kg, crystalline form, read-out: Cmax", "value": 1220, "unit": "ng/mL"}, {"measurement": "MRT last", "setting": "[2]; [9]", "value": 20.3, "unit": "h"}, {"measurement": "Tmax", "setting": "[2]; male, Beagle, dog, oral, 2 mg/kg, crystalline form, read-out: Tmax", "value": 45, "unit": "min"}, {"measurement": "bioavailability", "setting": "[2]; male, Beagle, dog, oral, 2 mg/kg", "value": 152, "unit": "%"}]}
